Values quoted from earlier work, collected in US12571046B2, “Methods of detecting and treating multiple system atrophy” (THE TRANSLATIONAL GENOMICS RESEARCH INSTITUTE, priority 2020, dated 2026).

Columns and labels:
[1] = tested on: conditional QKI knock-out mouse model; details: conditional QKI-KO mouse; PPARβ and RXR agonists; literature ref [82]/[96]
α-synuclein = α-synuclein (Homo sapiens, UniProt P37840); details: in vitro; interaction at N-terminus of α-synuclein; literature ref [65]

effect on α-synuclein fibrillization (α-synuclein)	Compound	effect on QKI deficiency-induced demyelination [1]
–	C=C(c1ccc(C(=O)O)cc1)c1cc2c(cc1C)C(C)(C)CCC2(C)C [bexarotene]	alleviate QKI deficiency-induced demyelination in the mouse
delays α-synuclein fibrillization	Vitamin K	–
–	C[C@@H]1CN(c2ccc(OC(F)(F)F)cc2)C[C@H](C)N1S(=O)(=O)c1cccc2c1C[C@@H](C(=O)O)C2.Cc1ccc(S(=O)(=O)O)cc1 [KD3010]	alleviate QKI deficiency-induced demyelination in the mouse
